Data on one compound can be found in ChEMBL document CHEMBL5385848, “Discovery of novel hydroxyamidine based indoleamine 2,3-dioxygenase 1 (IDO1) and thioredoxin reductase 1 (TrxR1) dual inhibitors” (Eur J Med Chem, 2023).

The structures appear in SMILES notation. Activity calls are given as the source filed them. The calls are words filed in the database; no cut-off is given here. Some results are limits rather than exact numbers.

For data set [1], the system named is HCT-116. Description: Induction of apoptosis in human HCT-116 cells assessed as apoptotic rate at 10 uM incubated for 24 hrs by Annexin-V/PI staining based flow cytometry analysis. The class given is functional.
For data set [2], the system named is HCT-116. Put plainly: Induction of ROS generation in human HCT-116 cells incubated for 4 hrs by DCFH-DA staining based flow cytometry analysis. The class given is functional, cell-based. The conditions noted are these: dose 2.5-10 µM.
The nature of data set [3]: Cytotoxicity against human HCT-116 cells incubated for 48 hrs by CCK-8 assay. The class given is toxicity, cell-based.
The target in data set [4] is T1, Thioredoxin reductase 1, cytoplasmic (Homo sapiens, UniProt Q16881).
T1 sequence (Q16881 whole entry): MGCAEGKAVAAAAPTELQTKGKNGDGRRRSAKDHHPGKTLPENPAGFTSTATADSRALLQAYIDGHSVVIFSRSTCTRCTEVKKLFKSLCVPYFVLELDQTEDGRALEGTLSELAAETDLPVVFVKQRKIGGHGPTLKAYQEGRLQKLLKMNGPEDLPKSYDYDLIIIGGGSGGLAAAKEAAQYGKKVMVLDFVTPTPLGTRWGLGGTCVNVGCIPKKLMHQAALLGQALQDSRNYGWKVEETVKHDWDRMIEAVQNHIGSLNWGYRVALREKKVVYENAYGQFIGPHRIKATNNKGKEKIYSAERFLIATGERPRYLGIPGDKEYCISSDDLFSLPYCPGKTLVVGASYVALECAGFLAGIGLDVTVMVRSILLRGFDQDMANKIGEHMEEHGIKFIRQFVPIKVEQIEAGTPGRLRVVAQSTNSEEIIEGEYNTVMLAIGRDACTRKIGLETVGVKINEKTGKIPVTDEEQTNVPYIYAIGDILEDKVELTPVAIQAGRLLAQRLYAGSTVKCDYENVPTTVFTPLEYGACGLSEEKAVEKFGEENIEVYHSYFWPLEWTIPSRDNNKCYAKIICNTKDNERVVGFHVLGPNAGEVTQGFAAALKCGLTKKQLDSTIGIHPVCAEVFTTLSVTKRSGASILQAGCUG
Put plainly: Inhibition of TrxR1 in human HCT-116 cells incubated for 24 hrs. In kind it is cell-based.

Data set [5] has as its target T2, Indoleamine 2,3-dioxygenase 2 (Homo sapiens, UniProt Q6ZQW0).
T2 sequence (Q6ZQW0 whole entry): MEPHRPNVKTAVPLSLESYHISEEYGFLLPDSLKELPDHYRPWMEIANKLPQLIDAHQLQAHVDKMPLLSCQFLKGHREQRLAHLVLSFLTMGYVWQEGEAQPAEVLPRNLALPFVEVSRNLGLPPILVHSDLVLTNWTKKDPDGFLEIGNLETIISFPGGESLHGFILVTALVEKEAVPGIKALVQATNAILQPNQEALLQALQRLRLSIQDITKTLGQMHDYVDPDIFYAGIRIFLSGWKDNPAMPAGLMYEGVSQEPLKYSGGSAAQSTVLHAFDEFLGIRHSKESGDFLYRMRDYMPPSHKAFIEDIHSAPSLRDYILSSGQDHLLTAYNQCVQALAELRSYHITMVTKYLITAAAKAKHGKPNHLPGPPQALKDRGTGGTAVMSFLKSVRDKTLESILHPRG
Put plainly: Inhibition of IDO2 (unknown origin) using D-Trp as substrate incubated for 1 hr.

Another data set concerns the target T3, Thioredoxin reductase 3 (Homo sapiens, UniProt Q86VQ6).
T3 sequence (Q86VQ6 whole entry): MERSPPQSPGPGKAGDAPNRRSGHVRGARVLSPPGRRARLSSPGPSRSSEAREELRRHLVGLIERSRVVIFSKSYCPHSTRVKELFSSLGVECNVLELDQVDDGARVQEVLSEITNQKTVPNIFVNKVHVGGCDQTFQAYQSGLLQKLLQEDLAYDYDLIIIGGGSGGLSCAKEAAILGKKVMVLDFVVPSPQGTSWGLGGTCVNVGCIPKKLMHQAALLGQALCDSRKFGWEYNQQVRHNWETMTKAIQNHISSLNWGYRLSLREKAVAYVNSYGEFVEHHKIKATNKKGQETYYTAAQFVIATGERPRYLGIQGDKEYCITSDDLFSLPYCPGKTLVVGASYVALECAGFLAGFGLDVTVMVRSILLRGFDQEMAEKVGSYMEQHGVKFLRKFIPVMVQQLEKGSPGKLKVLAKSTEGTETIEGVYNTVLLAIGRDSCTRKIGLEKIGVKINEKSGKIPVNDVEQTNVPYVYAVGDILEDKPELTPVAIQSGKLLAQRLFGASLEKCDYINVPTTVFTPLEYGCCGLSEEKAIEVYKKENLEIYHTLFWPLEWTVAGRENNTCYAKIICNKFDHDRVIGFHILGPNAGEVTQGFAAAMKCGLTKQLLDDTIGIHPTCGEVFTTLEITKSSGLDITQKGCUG
Put plainly: Inhibition of TrxR3 (unknown origin) incubated for 1 hr in presence of NADPH by microplate reader analysis.

Data set [6] deals with HCT-116. Put plainly: Antiproliferative activity against human HCT-116 cells assessed as cell growth inhibition incubated for 48 hrs by CCK-8 assay. In kind it is functional, cell-based. To be noted: HCT-116, 48 h.
The target of data set [7] is Indoleamine 2,3-dioxygenase 1 (Homo sapiens, UniProt P14902). Description: Inhibition of recombinant human IDO1 using L-Trp as substrate incubated for 1 hr.
Sequence of Indoleamine 2,3-dioxygenase 1 (P14902 whole entry): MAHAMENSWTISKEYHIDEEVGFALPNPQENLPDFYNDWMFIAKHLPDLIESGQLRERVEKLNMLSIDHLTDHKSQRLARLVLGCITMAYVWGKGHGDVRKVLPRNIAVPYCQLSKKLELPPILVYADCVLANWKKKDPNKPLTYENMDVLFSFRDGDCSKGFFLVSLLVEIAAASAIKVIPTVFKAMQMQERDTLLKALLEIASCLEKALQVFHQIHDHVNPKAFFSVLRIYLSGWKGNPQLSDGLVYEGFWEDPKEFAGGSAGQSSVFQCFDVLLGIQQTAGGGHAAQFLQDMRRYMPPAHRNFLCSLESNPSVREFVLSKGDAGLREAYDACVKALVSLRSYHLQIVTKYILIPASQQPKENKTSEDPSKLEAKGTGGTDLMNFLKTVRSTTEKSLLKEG
Data set [8] has as its system HCT-116. Description: Induction of cell cycle arrest in human HCT-116 cells assessed as G1/S phase arrest at 2.5 to 10 uM pretreated with NAC for 2 hrs followed by compound addition and measured after 12 hrs by PI staining based flow cytometry analysis. The conditions noted are these: dose 2.5-10 µM. The class given is functional.
Data set [9] relates to HCT-116. Put plainly: Cytotoxicity against human HCT-116 cells incubated for 24 hrs CCK-8 assay. The class given is functional, cell-based. To be noted: HCT-116, 24 h.
The subject of data set [10] is HeLa. Description: Induction of cell cycle arrest in human HeLa cells assessed as G1/S phase arrest at 2.5 to 10 uM incubated for 24 hrs by PI staining based flow cytometry analysis. To be noted: dose 2.5-10 µM. In kind it is functional.
In data set [11] the test system is HeLa. Description: Cytotoxicity against human HeLa cells transfected with TrxR1 siRNA incubated for 24 hrs by CCK-8 assay (reference value: 9.74 +/- 1.64 uM). In kind it is functional, cell-based.
Data set [12] has as its target Indoleamine 2,3-dioxygenase 1 (Mus musculus) (UniProt P28776). Description: In vivo inhibition of IDO1 in BALB/c mouse implanted with mouse CT-26 cells assessed as increase in plasma Trp level at 60 mg/kg, po administered once daily by LC-MS/MS analysis. In kind it is functional, organism-based.
Data set [13] has as its system CT26. Description: Antitumor activity against ig dosed mouse CT26 cells implanted in […] BALB/c mouse assessed as reduction in tumor volume administered daily for 28 days and measured every 4 days. The class given is functional, organism-based. To be noted: dose 15-60 mg/kg, time 28.0 day.
The test system of data set [14] is CT26. Put plainly: Antitumor activity against mouse CT26 cells implanted in […] BALB/c mouse assessed as increase in CD4 Th lymphocytes at 15 to 60 mg/kg, ig administered daily for 28 days and measured every 4 days. In kind it is functional, organism-based. To be noted: dose 15-60 mg/kg, time 28.0 day.
Data set [15] in a line: Toxicity in athymic BALB/c mouse xenografted with human HCT-116 cells assessed as effect on body weight at 15 to 60 mg/kg, ig administered daily for 28 days and measured every 4 days. In kind it is organism-based. The conditions noted are these: in vivo, po, 672 h, dose 15-60 mg/kg, time 28 day.
Data set [16] deals with HCT-116. Put plainly: Antitumor activity against human HCT-116 cells xenografted in athymic nude BALB/c mouse assessed as reduction in mitosis of tumor cells at 15 to 60 mg/kg, ig administered daily for 28 days and measured every 4 days. The class given is functional, organism-based. To be noted: dose 15-60 mg/kg, time 28.0 day.

Sequence of Indoleamine 2,3-dioxygenase 1 (Mus musculus) (P28776 whole entry, looked up): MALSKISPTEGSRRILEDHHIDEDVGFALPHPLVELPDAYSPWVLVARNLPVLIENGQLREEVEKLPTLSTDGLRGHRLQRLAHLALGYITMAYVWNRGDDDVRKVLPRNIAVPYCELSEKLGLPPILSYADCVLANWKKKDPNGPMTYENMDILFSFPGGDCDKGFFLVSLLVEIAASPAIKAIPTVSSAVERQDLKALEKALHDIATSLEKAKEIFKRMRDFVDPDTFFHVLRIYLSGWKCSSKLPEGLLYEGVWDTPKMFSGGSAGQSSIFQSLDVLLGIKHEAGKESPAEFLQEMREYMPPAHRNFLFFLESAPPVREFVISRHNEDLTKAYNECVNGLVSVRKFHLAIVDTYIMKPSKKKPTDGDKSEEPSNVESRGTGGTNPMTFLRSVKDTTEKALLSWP

Turning to `O=C(Cc1ccc(O)cc1)Nc1nnc(CCCNc2nonc2/C(=N\O)Nc2ccc(F)c(Br)c2)s1`, the Activity is 60.55% in the data set on HCT-116 [1], “Dose-Dependent Effect” in the data set on HCT-116 [2], “Dose-Dependent Effect” with CT26 [13] and “Non-Toxic” in data set [15]. Moreover, in data set [3], half-maximal inhibition (IC50 at 48 h) was put at 3.44 µM. In data set [4], this compound returned an EC50 of 3.14 µM. The IC50 in data set [5] is 22.2 µM; on Thioredoxin reductase 3, more than 500 µM; with HCT-116 [6], 3.44 µM; in [7], 0.05 µM; with HCT-116 [9], 3.33 µM; with HeLa [11] it was 4.86 µM. In the data set on HCT-116 [8], the result was inactive. Besides, the outcome (in the data set with HeLa [10]; in data set [12]; with CT26 [14]; with HCT-116 [16]) was Active.
